Assays:
[1] = tested on: HepG2/C3A, HCT-116 and Kasumi-1 cells; assay: μCCA viability of three cell lines, 5-FU alone vs 5-FU plus uracil (uracil as modulator)
Procedure: The device was assembled by sandwiching a cell culture chamber layer and a fluidic channel layer between an aluminum bottom frame and a PLEXIGLAS® top frame. A silicone gasket and a polycarbonate base were added to ensure better sealing. […] The device was placed on a rocking platform, set to change direction at approximately every 3 min.
(§2) The whole system was placed inside a cell culture incubator with 5% CO2. After a specified amount of time, the device was dissembled and cells were retrieved by dissolving the alginate in a dissolving buffer (55 mM sodium citrate, 30 mM EDTA, 0.15M NaCl) for 30 min at 37° C., or from […] ® by dissolving in DPBS with 5 mM EDTA solution at 4° C. Cell viability was determined by Trypan-blue exclusion assay using a hemocytometer. At least triplicates were done for each data point.
The effect of uracil as a modulator of 5-FU toxicity was tested by comparing the responses of cells to 5-FU plus uracil and 5-FU alone. […] Cells were also encapsulated in a different hydrogel, […] ®, in a μCCA.

HepG2/C3A [2] = assay: Toxicity in three-chamber μCCA (dynamic conditions), Trypan-blue viability, PK-PD model fit; settings: both static and dynamic conditions; lower Kmax or higher KC50
Procedure: (§3) The device was placed on a rocking platform, set to change direction at approximately every 3 min.
as §2
(§4) An integrated PK-PD model was developed by constructing a PK and PD model separately, and then combining the two. A PK model has the same layout of compartments as a μCCA device. A PD model is integrated into each compartment, describing the kinetics of cell death in each organ. To construct a PK model for a μCCA, mass balance equations describing the flow in, flow out, and metabolism were set up for each compartment, and the ordinary differential equations (ODEs) were solved numerically. Solving the equations required several parameters, such as physiological parameters (flow rate and size of chambers) and enzyme kinetic parameters for the metabolism of 5-FU and uracil, which are summarized in Table 1. […]

[3] = tested on: dihydropyrimidine dehydrogenase (DPD); settings: PK model parameter; calculated from rate of metabolism in a rat and reported liver protein content and cell number; cited from earlier work
HepG2/C3A [4] = assay: Toxicity experiment in static conditions, hydrogel-encapsulated cells, Trypan-blue viability, PD model fit; format: cell-based; settings: three days
Procedure: (§1) For static condition experiment, the same silicone gaskets were prepared on a glass slide, similar to the μCCA. Cells were seeded into the holes, encapsulated in hydrogel, and […] of cell culture medium were placed on top. This volume is same as the volume of medium placed in the reservoir of a μCCA. Therefore, cells in static conditions are essentially the same as the cells in a μCCA, except that the device was not assembled with the channel layer, and cells were immersed in liquid medium. Cell viability was assessed using the same method as a μCCA.

HCT-116 [5] = assay: as above; format: cell-based; settings: Homo sapiens, HCT-116, 72 h, 5-FU 0, 0.1, 0.2, 0.5 mM, three days, read-out: KC50 (drug concentration where half of the maximum rate is observed), fitted PD parameter
Procedure: as §1

Kasumi-1 [6] = assay: as above; format: cell-based; settings: Homo sapiens, Kasumi 1, 72 h, 5-FU 0, 0.1, 0.2, 0.5 mM, three days, read-out: KC50 (drug concentration where half of the maximum rate is observed), fitted PD parameter
Procedure: as §1

Kasumi-1 [7] = assay: Toxicity in three-chamber μCCA (dynamic conditions), Trypan-blue viability, PK-PD model fit; settings: three days
Procedure: as §3, §2, §4

HCT-116 [8] = assay: as above; settings: three days
Procedure: as §3, §2, §4

[9] = previous clinical findings; cited from earlier work

| SMILES | Sensitivity of cells to 5-FU in dynamic conditions versus static conditions [1] | Resistance to 5-FU compared with other two cell types (HepG2/C3A [2]) | Maximum rate of metabolism (Vm) [3] | EC50 (HepG2/C3A [4]; HepG2/C3A, 72 h, 5-FU 0, 0.1, 0.2, 0.5 mM, read-out: KC50 (drug concentration where half of the maximum rate is observed), fitted PD parameter) | Drop in viability compared with other cell types (HepG2/C3A [4]) | EC50 (HCT-116 [5]) | EC50 (Kasumi-1 [6]) | Sensitivity to 5-FU treatment compared with hepatoma (HepG2/C3A) cell line (Kasumi-1 [7]) | Sensitivity to 5-FU treatment compared with hepatoma (HepG2/C3A) cell line (HCT-116 [8]) | Dose-limiting toxicity [9] |
| --- | --- | --- | --- | --- | --- | --- | --- | --- | --- | --- |
| O=c1[nH]cc(F)c(=O)[nH]1 [5-FU, 5-fluorouracil] | more sensitive | most resistant | 2385 nmol/min/mL | 5.52 mM | slower drop in the viability | 8.61 mM | 7.41 mM | much more sensitive | much more sensitive | hematological toxicity |
| O=c1cc[nH]c(=O)[nH]1 [uracil] |  |  | 1695 nmol/min/mL |  |  |  |  |  |  |  |

Reference: US8748180B2, “Microfluidic device for pharmacokinetic-pharmacodynamic study of drugs and uses thereof” (Cornell University, priority 2009, dated 2014)
